Measured values taken from patent US20230072683A1, “PYRIDO-PYRIMIDIN DERIVATIVES AND PHARMACEUTICAL COMPOSITION, FOR USE IN PREVENTING OR TREATING PI3 KINASE RELATED DISEASES, COMPRISING SAME AS ACTIVE INGREDIENT” (BORYUNG PHARMACEUTICAL CO., LTD, priority 2019, published 2023).
Like-named read-outs stand apart in the source and are kept apart here.

Key:
[1] = biological target: PI3K-δ (PI3K(p1108/p857) (h)) (Homo sapiens, UniProt O00329); experiment: Evaluation of inhibitory activity against PI3K-δ (HTRF kinase assay); format: biochemical; details: for inhibition at 0.1 µM: read-out: EXP_VALUE(% Inhibition) PI3K-δ 0.1 μM; for inhibition at 0.01 µM: compound concentration 0.01 μM, read-out: EXP_VALUE(% Inhibition) PI3K-δ 0.01 μM
In short: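 HTRF read-out (665/620 nm ratio ×10000) used Eu-labelled anti-GST, GST-tagged GRP1 PH domain and streptavidin-allophycocyanin after EDTA/PIP3 stop.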

[2] = biological target: DNA-PK(h) (Homo sapiens, UniProt P78527); experiment: Evaluation of inhibitory activity against DNA-PK (HTRF kinase assay, GST-cMyc-p53 substrate); format: biochemical; details: for inhibition at 0.1 µM: read-out: EXP_VALUE(% Inhibition) DNA-PK(h) 0.1 μM; for inhibition at 0.01 µM: compound concentration 0.01 μM, read-out: EXP_VALUE(% Inhibition) DNA-PK(h) 0.01 μM
In short: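 p53 Ser15 phosphorylation by human DNA-PK was measured by time-resolved FRET ratio (665/620 nm ×10000) using Eu-labelled anti-phospho-Ser15 and d2 anti-GST antibodies. Substrate GST-cMyc-p53 at 50 μM; Mg/ATP-initiated, 30 min at room temperature, EDTA stop.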

PI3K-δ (PI3K(p1108/p857) (h)), sequence (O00329 whole entry, the tested form may be a part): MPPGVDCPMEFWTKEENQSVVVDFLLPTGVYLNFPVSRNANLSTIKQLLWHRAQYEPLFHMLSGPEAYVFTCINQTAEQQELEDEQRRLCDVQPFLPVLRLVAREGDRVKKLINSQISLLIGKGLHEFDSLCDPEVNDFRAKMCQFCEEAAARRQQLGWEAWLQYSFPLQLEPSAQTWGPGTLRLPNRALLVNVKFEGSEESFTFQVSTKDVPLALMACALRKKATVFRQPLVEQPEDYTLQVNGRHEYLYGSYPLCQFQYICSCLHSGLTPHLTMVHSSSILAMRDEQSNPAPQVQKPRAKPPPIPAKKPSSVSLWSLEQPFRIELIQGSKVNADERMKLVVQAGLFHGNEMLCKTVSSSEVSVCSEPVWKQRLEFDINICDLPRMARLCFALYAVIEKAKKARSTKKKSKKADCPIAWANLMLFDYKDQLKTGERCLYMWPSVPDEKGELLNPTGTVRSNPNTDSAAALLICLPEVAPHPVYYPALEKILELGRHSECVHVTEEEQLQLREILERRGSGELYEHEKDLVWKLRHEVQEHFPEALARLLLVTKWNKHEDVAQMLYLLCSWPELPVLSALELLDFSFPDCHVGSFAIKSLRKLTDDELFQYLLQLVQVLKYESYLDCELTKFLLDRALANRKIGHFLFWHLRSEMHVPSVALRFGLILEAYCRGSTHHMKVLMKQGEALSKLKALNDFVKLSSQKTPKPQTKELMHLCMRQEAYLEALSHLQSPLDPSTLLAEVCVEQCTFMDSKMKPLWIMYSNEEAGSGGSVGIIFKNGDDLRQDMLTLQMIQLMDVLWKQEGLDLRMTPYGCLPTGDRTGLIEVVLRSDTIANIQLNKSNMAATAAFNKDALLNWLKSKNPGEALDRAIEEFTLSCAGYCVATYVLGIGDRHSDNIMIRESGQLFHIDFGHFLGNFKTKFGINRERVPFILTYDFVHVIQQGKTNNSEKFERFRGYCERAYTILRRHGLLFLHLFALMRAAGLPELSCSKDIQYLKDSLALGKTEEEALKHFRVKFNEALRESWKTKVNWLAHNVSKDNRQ
PI3K-δ (PI3K(p1108/p857) (h)), sequence (P27986 whole entry partner, the tested form may be a part): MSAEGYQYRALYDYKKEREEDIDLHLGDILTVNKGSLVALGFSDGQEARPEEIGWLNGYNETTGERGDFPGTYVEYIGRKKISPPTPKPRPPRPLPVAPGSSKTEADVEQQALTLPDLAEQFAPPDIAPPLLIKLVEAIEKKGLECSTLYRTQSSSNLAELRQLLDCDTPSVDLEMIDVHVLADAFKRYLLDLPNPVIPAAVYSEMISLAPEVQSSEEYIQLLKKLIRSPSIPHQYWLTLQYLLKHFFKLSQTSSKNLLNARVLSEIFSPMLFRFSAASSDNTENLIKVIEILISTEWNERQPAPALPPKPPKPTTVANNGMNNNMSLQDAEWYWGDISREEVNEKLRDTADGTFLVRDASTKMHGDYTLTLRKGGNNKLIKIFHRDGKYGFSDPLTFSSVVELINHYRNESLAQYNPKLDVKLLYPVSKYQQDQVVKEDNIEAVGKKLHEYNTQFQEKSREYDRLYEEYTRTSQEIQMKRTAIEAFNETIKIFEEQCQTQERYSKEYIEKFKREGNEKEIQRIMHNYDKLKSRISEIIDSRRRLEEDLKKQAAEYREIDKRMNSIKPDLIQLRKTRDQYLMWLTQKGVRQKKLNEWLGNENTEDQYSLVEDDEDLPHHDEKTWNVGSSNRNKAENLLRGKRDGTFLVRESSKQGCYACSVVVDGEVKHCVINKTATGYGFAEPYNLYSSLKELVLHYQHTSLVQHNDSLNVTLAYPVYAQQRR

SMILES	inhibition at 0.1 µM ([1]; compound concentration 0.1 μM) [%]	inhibition at 0.1 µM ([2]; compound concentration 0.1 μM) [%]	inhibition at 0.01 µM [1] [%]	inhibition at 0.01 µM [2] [%]	inhibition at 0.1 µM ([1]; compound at 0.1 μM) [%]	inhibition at 0.1 µM ([2]; compound at 0.1 μM) [%]
C[C@H](Nc1ncnc2[nH]ccc(=O)c12)c1c(Cl)c2cccc(-c3ccc4ncncc4c3)c2c(=O)n1-c1ccccc1 [Example 32, (S)-4-((1-(4-chloro-1-oxo-2-phenyl-8-(quinazolin-6-yl)-1,2-dihydroisoquinolin-3-yl)ethyl)amino)pyrido[2,3-d]pyrimidin-5(8H)-one]			96	75		
C[C@H](Nc1ncnc2[nH]ccc(=O)c12)c1c(Cl)c2cccc(N3CC4CC=CCC4C3)c2c(=O)n1-c1ccccc1 (stereo partly drawn) [Example 8, 4-(((1S)-1-(4-chloro-1-oxo-2-phenyl-8-(3a, 4,7,7a-tetrahydro-1H-isoindol-2 (3H)-yl)-1,2-dihydroisoquinolin-3-yl)ethyl)amino)pyrido[2,3-d]pyrimidin-5(8H)-one]	76	28	36	12		
C[C@H](Nc1ncnc2[nH]ccc(=O)c12)c1c(Cl)c2cccc(-c3nc4ccccc4o3)c2c(=O)n1-c1ccccc1 [Example 317, (S)-4-((1-(8-(benzo[d]oxazol-2-yl)-4-chloro-1-oxo-2-phenyl-1,2-dihydroisoquinolin-3-yl)ethyl)amino)pyrido[2,3-d]pyrimidin-5(8H)-one]	86	96	45	64		
C[C@H](Nc1ncnc2[nH]ccc(=O)c12)c1c(Cl)c2cccc(-c3ccc(C=O)cc3)c2c(=O)n1-c1ccccc1 [Example 85, (S)-4-(4-chloro-1-oxo-3-(1-((5-oxo-5,8-dihydropyrido[2,3-d]pyrimidin-4-yl)amino)ethyl)-2-phenyl-1,2-dihydroisoquinolin-8-yl)benzaldehyde]	95	91	73	56		
COc1ncc(-c2cccc3c(Cl)c([C@H](C)Nc4ncnc5[nH]ccc(=O)c45)n(-c4ccccc4)c(=O)c23)cc1F [Example 186, (S)-4-((1-(4-chloro-8-(5-fluoro-6-methoxypyridin-3-yl)-1-oxo-2-phenyl-1,2-dihydroisoquinolin-3-yl)ethyl)amino)pyrido[2,3-d]pyrimidin-5(8H)-one]			94	49		
C[C@H](Nc1ncnc2[nH]ccc(=O)c12)c1c(Cl)c2cccc(B3OC(C)(C)C(C)(C)O3)c2c(=O)n1-c1ccccc1 [Example 2, (S)-4-((1-(4-chloro-1-oxo-2-phenyl-8-(4,4,5,5-tetramethyl-1,3,2-dioxaborolan-2-yl)-1,2-dihydroisoquinolin-3-yl)ethyl)amino)pyrido[2,3-d]pyrimidin-5(8H)-one]	94	89	42	56		
Cc1nc(-c2ccc(-c3cccc4c(Cl)c([C@H](C)Nc5ncnc6[nH]ccc(=O)c56)n(-c5ccccc5)c(=O)c34)cc2)no1 [Example 160, (S)-4-((1-(4-chloro-8-(4-(5-methyl-1,2,4-oxadiazol-3-yl)phenyl)-1-oxo-2-phenyl-1,2-dihydroisoquinolin-3-yl)ethyl)amino)pyrido[2,3-d]pyrimidin-5(8H)-one]			94	74		
COc1ncc(-c2cccc3c(Cl)c([C@H](C)Nc4ncnc5[nH]ccc(=O)c45)n(-c4ccccc4)c(=O)c23)cc1NS(C)(=O)=O [Example 225, (S)—N-(5-(4-chloro-1-oxo-3-(1-((5-oxo-5,8-dihydropyrido[2,3-d]pyrimidin-4-yl)amino)ethyl)-2-phenyl-1,2-dihydroisoquinolin-8-yl)-2-methoxypyridin-3-yl)methanesulfonamide]			74	76		
CC(C)Oc1ncc(-c2cccc3c(Cl)c([C@H](C)Nc4ncnc5[nH]ccc(=O)c45)n(-c4ccccc4)c(=O)c23)cn1 [Example 182, (S)-4-((1-(4-chloro-8-(2-isopropoxypyrimidin-5-yl)-1-oxo-2-phenyl-1,2-dihydroisoquinolin-3-yl)ethyl)amino)pyrido[2,3-d]pyrimidin-5(8H)-one]			85	64		
C[C@H](Nc1ncnc2[nH]ccc(=O)c12)c1c(Cl)c2cccc(-c3cnc(C(C)(C)O)nc3)c2c(=O)n1-c1ccccc1 [Example 26, (S)-4-((1-(4-chloro-8-(2-(2-hydroxypropan-2-yl)pyrimidin-5-yl)-1-oxo-2-phenyl-1,2-dihydroisoquinolin-3-yl)ethyl)amino)pyrido[2,3-d]pyrimidin-5(8H)-one]			92	66		
C[C@H](Nc1ncnc2[nH]ccc(=O)c12)c1c(Cl)c2cccc(-c3ccc4nonc4c3)c2c(=O)n1-c1ccccc1 [Example 240, (S)-4-((1-(8-(benzo[c][1,2,5]oxadiazol-5-yl)-4-chloro-1-oxo-2-phenyl-1,2-dihydroisoquinolin-3-yl)ethyl)amino)pyrido[2,3-d]pyrimidin-5(8H)-one]			61	22		
Cc1c[nH]c2ccc(-c3cccc4c(Cl)c([C@H](C)Nc5ncnc6[nH]ccc(=O)c56)n(-c5ccccc5)c(=O)c34)cc12 [Example 74, (S)-4-((1-(4-chloro-8-(3-methyl-1H-indol-5-yl)-1-oxo-2-phenyl-1,2-dihydroisoquinolin-3-yl)ethyl)amino)pyrido[2,3-d]pyrimidin-5(8H)-one]	88	90	65	54		
C[C@H](Nc1ncnc2[nH]ccc(=O)c12)c1c(Cl)c2cccc(C(=O)NC3CCC3)c2c(=O)n1-c1ccccc1 [Example 277, (S)-4-chloro-N-cyclobutyl-1-oxo-3-(1-((5-oxo-5,8-dihydropyrido[2,3-d]pyrimidin-4-yl)amino)ethyl)-2-phenyl-1,2-dihydroisoquinoline-8-carboxamide]			99	8		

Results, then the compound that gave them:

inhibition at 0.1 µM ([1]; compound concentration 0.1 μM) [%]	inhibition at 0.1 µM ([2]; compound concentration 0.1 μM) [%]	inhibition at 0.01 µM [1] [%]	inhibition at 0.01 µM [2] [%]	inhibition at 0.1 µM ([1]; compound at 0.1 μM) [%]	inhibition at 0.1 µM ([2]; compound at 0.1 μM) [%]	SMILES
48	36					C[C@H](Nc1ncnc2[nH]ccc(=O)c12)c1c(Cl)c2cccc(-c3ccc4c(c3)NC(=O)C(C)(C)O4)c2c(=O)n1-c1ccccc1 [Example 373, (S)-6-(4-chloro-1-oxo-3-(1-((5-oxo-5,8-dihydropyrido[2,3-d]pyrimidin-4-yl)amino)ethyl)-2-phenyl-1,2-dihydroisoquinolin-8-yl)-2,2-dimethyl-2H-benzo[b] [1,4]oxazin-3 (4H)-one]
		62	34			C[C@H](Nc1ncnc2[nH]ccc(=O)c12)c1c(Cl)c2cccc(C3NCCS3)c2c(=O)n1-c1ccccc1 (stereo partly drawn) [Example 356, 4-(((1S)-1-(4-chloro-1-oxo-2-phenyl-8-(thiazolidin-2-yl)-1,2-dihydroisoquinolin-3-yl)ethyl)amino)pyrido[2,3-d]pyrimidin-5(8H)-one]
42	12	17	2			C[C@H](Nc1ncnc2[nH]ccc(=O)c12)c1c(Cl)c2cccc(N3CCC4CCCCC4C3)c2c(=O)n1-c1ccccc1 (stereo partly drawn) [Example 328, 4′-chloro-3′-((S)-1-((5-oxo-5,8-dihydropyrido[2,3-d]pyrimidin-4-yl)amino)ethyl)-2′-phenyl-3,4,4a,5,6,7,8,8a-octahydro-1H-[2,8′-biisoquinolin]-1′(2′H)-one]
				72	58	Cc1ccc(-c2cccc3c(Cl)c([C@H](C)Nc4ncnc5[nH]ccc(=O)c45)n(-c4ccccc4)c(=O)c23)s1 [Example 387, (S)-4-((1-(4-chloro-8-(5-methylthiophen-2-yl)-1-oxo-2-phenyl-1,2-dihydroisoquinolin-3-yl)ethyl)amino)pyrido[2,3-d]pyrimidin-5(8H)-one]
				29	46	CCC[S@+]([O-])c1cccc2c(Cl)c([C@H](C)Nc3ncnc4[nH]ccc(=O)c34)n(-c3ccccc3)c(=O)c12 [Example 396, 4-(((S)-1-(4-chloro-1-oxo-2-phenyl-8-((S)-propylsulfinyl)-1,2-dihydroisoquinolin-3-yl)ethyl)amino)pyrido[2,3-d]pyrimidin-5(8H)-one]
76	80	26	35			COCCOc1cccc2c(Cl)c([C@H](C)Nc3ncnc4[nH]ccc(=O)c34)n(-c3ccccc3)c(=O)c12 [Example 363, (S)-4-((1-(4-chloro-8-(2-methoxyethoxy)-1-oxo-2-phenyl-1,2-dihydroisoquinolin-3-yl)ethyl)amino)pyrido[2,3-d]pyrimidin-5(8H)-one]
				94	34	CCC[S@@+]([O-])c1cccc2c(Cl)c([C@H](C)Nc3ncnc4[nH]ccc(=O)c34)n(-c3ccccc3)c(=O)c12 [Example 397]
				9	7	C[C@H](Nc1ncnc2[nH]ccc(=O)c12)c1c(Cl)c2cccc([S@](=N)(=O)c3ncccn3)c2c(=O)n1-c1ccccc1 [Example 421, 4-(((S)-1-(4-chloro-1-oxo-2-phenyl-8-((S)-pyrimidine-2-sulfonimidoyl)-1,2-dihydroisoquinolin-3-yl)ethyl)amino)pyrido[2,3-d]pyrimidin-5(8H)-one]
